# Data reported in patent publication US20160033533A1, “2-HYDROXYGLUTARATE AS A BIOMARKER FOR CHRONIC HYPOXIA” (MEMORIAL SLOAN KETTERING CANCER CENTER, priority 2011, published 2016).
# System: SF188 cells
# Experiment: Viability of glutamine-starved hypoxic SF188 cells (trypan blue dye exclusion)
# Type: cell-based, human
# Conditions: 0.5% O2, 48 h, glutamine-deficient medium supplemented with 7 mM dimethyl α-ketoglutarate
# Experimental: In FIG. 2(A), SF188 cells were cultured for 24 h in complete medium equilibrated with either 21% O2 (Normoxia) or 0.5% O2 (Hypoxia). Culture medium was then removed from cells and analyzed for glutamine levels which were compared to the glutamine levels in fresh medium. Data are the mean±SEM of 3 independent experiments. […] Cells were cultured in complete medium equilibrated with 0.5% O2 for 24 h, followed by an additional 48 h at 0.5% O2 in either complete medium (+Gln), glutamine-deficient medium (−Gln), or glutamine-deficient medium supplemented with 7 mM dimethyl α-ketoglutarate (−Gln+αKG). All medium was pre-conditioned in 0.5% O2. Cell viability was determined by trypan blue dye exclusion. Data are the mean and range from 2 independent experiments. FIG. 2(C) depicts a model of the pathways for cit+4 and cit+5 production from [U-^13C]glutamine (glutamine+5). […] Cells were cultured for 24 h as in (A), followed by 4 h of culture in glutamine-deficient medium supplemented with 4 mM [U-^13C]glutamine. ^13C enrichment in cellular citrate was quantitated with GC-MS. […]
# SF188 and RCC4 cells were cultured in Dulbecco's Modified Eagle's Medium (DMEM; Invitrogen 11965), 10% fetal bovine serum (FBS; Gemini Biosystems), 100 units/ml Penicillin, 100 ug/ml Streptomycin, 25 mM glucose, and 6 mM L-glutamine. […] Viability was determined by trypan blue exclusion. […]
structure (smiles),measurement,value
COC(=O)CCC(=O)C(=O)OC [dimethyl α-ketoglutarate],cell viability upon glutamine withdrawal,rescued the defect in cell viability
